Results taken from US10301630B2, “Methods and compositions for unsilencing imprinted genes” (The University of North Carolina at Chapel Hill, priority 2010, dated 2019).

Tests used:
UBE3A protein = assay: Western blot of endogenous UBE3A protein in Ube3a m-/p+ cortical neurons; assay type: cell-based, mouse; details: 300 nM, 72 h
Procedure: Embryonic day 13.5 to 15.5 mice that encode the paternal Ube3a-YFP transgene or Ube3a^m−/p+ mice (i.e., AS model mice) were identified and primary cortical neuronal cultures were obtained and plated in 6 well plates. […] To assess Ube3a-YFP protein levels, 7.5 ug of total protein lysates from Ube3a-YFP neurons were separated by 8% SDS-polyacrylamide gel electrophoresis, proteins were transferred to nitrocellulose membranes and immunoblotting was performed using a rabbit anti-GFP antibody (Novus) and Alexa Fluor 680 goat anti-rabbit IgG (Invitrogen). Ube3a-YFP protein bands were visualized by a LiCOR system and to control for protein loading, Ube3a-YFP protein levels were normalized to actin level detected in each sample. To assess Ube3a protein level, immunoblotting was performed using rabbit anti-Ube3a antibody (Abeam) and Alexa Fluor 680 goat anti-rabbit IgG (Invitrogen).
E13.5-15.5 primary cortical neurons from Ube3a-YFP, Ube3a-deficient, or wild-type mice were plated in 6-well plates. At DIV7, neurons were treated with drug or 0.1% DMSO for 72 h, and then total protein lysates were obtained by lysis buffer (1% Triton X-100, 5 mM EDTA, 0.15M NaCl, 10 mM Tris-HCl, pH 7.5, phosphatase inhibitor cocktails 1, protease inhibitor cocktail). […] To control for protein loading, UBE3A-YFP or UBE3A protein levels were normalized to actin levels detected in each sample.

[1] = system: paternal Ube3a allele in brain; assay: Intracerebroventricular delivery, paternal Ube3a in brain; assay type: in vivo, mouse
Procedure: In order to unsilence paternal Ube3a in vivo with an emphasis on brain, I.C.V. with osmotic minipump was performed. […] Paternal Ube3a-YFP mice were anesthetized with Ketamine/Xylazine (120 mg/kg; 9 mg/kg) and positioned in a stereotaxic head frame. The scalp is shaved and cut, and the skull exposed. The local anesthetic (Bupivacaine, 2.5 mg/ml) is applied on the top of skull and mineral oil is applied on the eyes of the mice. Acetone is applied on the skull to remove any lipid tissues on the skull as well as to dry the skull surface for optimal adhesion. Next, a cannula (Brain Infusion Kit 1, DURECT Corporation) is positioned into a lateral ventricle at the following coordinates (−0.3 mm A/P, +/−1.0 mm M/L, −3.0 mm D/V). The free end of the cannula is connected to an Alzet osmotic minipump via a 2.5-cm-long piece of polyethylene (PE) tubing (cat. no. 0007750, DURECT Corporation). […] The filled pumps are incubated in sterile saline at 37° C. for at least 4 to 6 hours for priming before being implanted under the dorsal skin of the mouse's back. A needle driver is used to create a subcutaneous pocket in the scapula region to accommodate filled pumps. The cannula base and the attached piece of PE tubing are fixed to the skull with loctite cyanoacrylic. The incision site is closed with prolene suture. During and after surgery, mice are placed on a heating pad. Body weight of mice is recorded daily to assess mouse health. Seven days following minipump implantation, mice are sacrificed following pentobarbital overdose (150 mg/kg, I.P.) and brains are removed for immunofluorescence staining or Western blot analysis.
For immunocytochemistry in brain tissues, mice were perfused with 4% PFA in 0.1M PBS, postfixed overnight, and cryoprotected with 20% sucrose in 0.1M phosphate buffer (PB), pH=7.4 for two days. 60 μm sections were collected and permeabilized with 0.3% Triton X-100 in 0.1M PB for 30 min, and blocked by 5% goat serum for 1 hr. Sections were incubated with rabbit polyclonal antibody to GFP (1:1000, Novus Biologicals, NB600-308) at 4° C. overnight and then incubated with Alexa Fluor 488 goat antibody to rabbit IgG and DAPI for 2 hr at room temperature. Images were acquired using a Zeiss LSM 510 and 710 confocal microscopes.
For optical intensity measurement in selected brain regions, sections were imaged using a Zeiss LSM 510 confocal microscope. With custom macros created using ImageJ software^34, optical intensity of UBE3A-YFP was measured in different regions of hippocampus and striatum from vehicle- and topotecan-treated mice. Image intensity levels were normalized to background intensities from appropriate regions in vehicle-treated mice. Brain sections between Bregma −1.22 mm and −2.06 mm were chosen for analysis (n=5 sections/mouse for hippocampus and n=3 to 5 sections/mouse for striatum).
Mice with paternal Ube3a-YFP (Ube3a^m+/pYFP) were anesthetized with ketamine/xylazine (120 mg/kg; 9 mg/kg) and positioned in a stereotaxic apparatus. The scalp was shaved and cut, and the skull exposed. The local anesthetic (bupivacaine, 2.5 mg/ml) was applied to the skull, and mineral oil was applied to protect the eyes of the mice. Acetone was applied on the skull to remove any lipid tissues on the skull as well as to dry the skull surface for optimal adhesion. Next, a cannula (Brain Infusion Kit 1, DURECT Corporation) was positioned into a lateral ventricle at the following coordinates (−0.3 mm A/P, +1.0 mm M/L, −2.5 mm DN), as described^40. The free end of the cannula was connected to a mini-osmotic pump (Alzet, Model 2001 or 2002) via a 2.5 cm piece of polyethylene (PE) tubing (DURECT Corporation). […] The filled pumps were incubated in sterile saline at 37° C. for at least 4 hr before being implanted under the dorsal skin of the mouse's back. The cannula base and the attached piece of PE tubing were fixed to the skull with Loctite cyanoacrylic 454. The incision site was closed with prolene suture. […]

cultured neurons = assay: Neuron health / cell death in treated cultures; assay type: cell-based, mouse

Row | SMILES | UBE3A protein level in neurons from Ube3a m−/p+ mice (UBE3A protein) | mice with robust unsilencing in cerebral cortex near the infused ventricle ([1]; i.c.v. 3.74 μg/h for two weeks) | unsilencing of paternal Ube3a, cerebellum ([1]; i.c.v. 3.74 μg/h for two weeks) | unsilencing of paternal Ube3a, contralateral (non-infused) hemisphere ([1]; i.c.v. 3.74 μg/h for two weeks) | unsilencing of paternal Ube3a, infused hemisphere ([1]; i.c.v. 3.74 μg/h for two weeks, mini-osmotic pump) | unsilencing of paternal Ube3a, cerebellar Purkinje neurons ([1]; i.c.v. 21.6 μg/h for five days) | paternal Ube3a-YFP protein in brain after ICV infusion (Example 3) ([1]; i.c.v. osmotic minipump, one week) | Ube3a levels in Angelman syndrome model mice ([1]; i.c.v.) | neuron density and health (DAPI counterstain) (cultured neurons; 10 μM for 72 hr) | pyknotic nuclei versus vehicle (cultured neurons; effective concentrations, cultures)
1 | CC[C@@]1(O)C(=O)OCc2c1cc1n(c2=O)Cc2cc3c(CN(C)C)c(O)ccc3nc2-1 [Topotecan] | restored UBE3A protein to wild-type levels | two of five mice | no effect in the cerebellum | only a modest effect | unsilenced paternal Ube3a in the hippocampus, striatum, and cerebral cortex of the infused hemisphere | did unsilence the paternal allele of Ube3a in Purkinje neurons of the cerebellum | increased paternal Ube3a-YFP protein levels throughout the brain | – | – | –
2 | CCc1c2c(nc3ccc(OC(=O)N4CCC(N5CCCCC5)CC4)cc13)-c1cc3c(c(=O)n1C2)COC(=O)[C@]3(O)CC [Irinotecan] | – | – | – | – | – | – | – | significantly increased Ube3a levels | Neuron density and health is similar | a similar number of pyknotic nuclei
